Experimental data from patent US11839659B2, “Proteolysis-targeting chimeric molecules (PROTACs) that induce degradation of indoleamine 2,3-dioxygenase (IDO) protein” (Northwestern University, priority 2020, dated 2023).
“Also recorded” adds a separate entry of the source. Peptide text beside a SMILES is read from it. * marks the point of attachment. Cbz = O=C(OCc1ccccc1)*

Columns and labels:
Assay type in all cases: cell-based
[1] = target: T1, IDO1 (Homo sapiens, UniProt P14902); assay: Western blot: effect of competitors and pathway inhibitors on IDO-PROTAC induced IDO1 degradation; details: co-treatment with IDO-PROTAC, U87 cells where stated
T1 construct: IDO1 protein was induced in U87 cells with IFNg (50 ng/ml) for 24 hours followed by treatment with IDO-PROTAC; endogenous in cells; host or cells: U87 parental cells; GBM43 cells (IFNg-induced)

[2] = target: T1, IDO1; assay: Western blot of IFNg-induced IDO1 protein levels in U87 cells after IDO-PROTAC treatment; details: IFNg (50 ng/ml) 24 hours, then IDO-PROTAC 24 hours
Protocol: FIG. 2. Screening method for PROTAC-induced degradation of IDO1 using INFg-treated U87 parental cells.
(§1) FIG. 20. Discovery of lead IDO-PROTAC to induce IDO1 degradation in cancer cells. A. Schema for screening IDO-PROTAC compounds in U87 cells. […] Percent IFNg-induced IDO1 levels (normalized to untreated samples) were calculated in U87 cells after treating with IDO-PROTAC compounds at 0, 0.1, 1, and 10 uM concentration for 24 hours. C. […] IDO1 was induced in U87 and GBM43 cells with IFNg (50 ng/ml) for 24 hours followed by treatment with IDO-PROTAC for 24 hours before protein samples were prepared for western blotting analysis. D. Percent normalized IDO1 protein levels in U87 and GBM43 cells (from panel C) after treating with lead IDO-PROTAC (NU223612) for 24 hours. E & F. Testing moderate and poor IDO-PROTAC compounds on IDO1 protein levels in U87 cells. […] Structures of IDO-PROTAC (I), mutant IDO-PROTAC (J), and parental compound (K).
FIG. 27. Representative western blots to identify a lead IDO-PROTAC in U87 cells. IDO1 protein was induced in U87 cells with IFNg (50 ng/ml) for 24 hours followed by treatment with IDO-PROTAC at 0, 0.1, 1, and 10 uM for 24 hours before protein samples were prepared for western blotting analysis of IDO1 and GAPDH.

[3] = target: T1, IDO1; assay: Western blot of IFNg-induced IDO1 protein levels in GBM43 cells after IDO-PROTAC treatment; details: IFNg (50 ng/ml) 24 hours, then IDO-PROTAC 24 hours
Protocol: as §1

[4] = target: T1, IDO1; assay: Enzyme-dependent (kynurenine production) and enzyme-independent (phospho-NFkB p65) functions of IDO1 in GBM cells; details: GBM cells (U87, GBM43)
Protocol: FIG. 24. […] A & B. Effect of IDO-PROTAC, mutant IDO-PROTAC, and IDO-inhibitor on kynurenine production in U87 & GBM43 cells respective cells. Cells were treated with IDO-PROTAC, mutant IDO-PROTAC, or IDO-inhibitor in the presence of INFg (50 ng/ml) for 24 hours and cell culture supernatants were collected to measure IFNg-induced kynurenine levels using a modified Erlich method. Cells cultured in the absence of IFNg serves as a control group. C. Western blotting analysis to determine the effect of IDO-PROTAC and IDO-inhibitor on IDO1 protein levels, phospho-NFkB (p65) levels, total-NFkB (p65) levels and GAPDH levels in U87 cells. IDO1 protein was induced with IFNg for 24 hours in U87 cells followed by treatment with IDO-PROTAC and IDO-inhibitor for 24 hours at multiple concentrations. D. Western blotting analysis to determine the effect of IDO-PROTAC, mutant IDO-PROTAC, and IDO-inhibitor on IDO1 protein levels, phospho-NFkB (p65) levels, total-NFkB (p65) levels and GAPDH levels in a breast cancer cell line, MDA MB 231. E. Western blotting analysis to determine the effect of IDO-PROTAC on the levels of IDO1 protein, phospho-NFkB (p65), total-NFkB (p65) and GAPDH in U87 IDO1 overexpressing (flag-tagged) cells. Cells were treated with DMSO or IDO-PROTAC (10 uM) for 24 hours prior to protein extraction. U87 parental cells serves as a control group for basal phosphorylation of NFkB. […]

T1 sequence (P14902 whole entry): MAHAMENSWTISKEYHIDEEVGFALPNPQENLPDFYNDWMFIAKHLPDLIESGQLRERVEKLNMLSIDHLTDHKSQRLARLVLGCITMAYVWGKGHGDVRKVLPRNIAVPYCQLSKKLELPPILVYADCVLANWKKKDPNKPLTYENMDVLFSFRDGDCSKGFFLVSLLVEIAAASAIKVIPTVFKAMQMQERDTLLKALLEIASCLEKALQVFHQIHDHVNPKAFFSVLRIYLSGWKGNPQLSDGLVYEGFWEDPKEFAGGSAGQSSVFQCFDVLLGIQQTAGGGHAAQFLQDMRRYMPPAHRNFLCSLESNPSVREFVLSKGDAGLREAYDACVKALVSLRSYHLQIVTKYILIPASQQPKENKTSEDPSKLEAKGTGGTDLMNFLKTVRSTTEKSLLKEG

IDO1 degradation (western blot) [2] | IDO1 degradation (western blot) [3] | Effect on NU223612 (IDO-PROTAC) induced IDO1 degradation ([1]; listed as CRBN ligand) | SMILES | Effect on NU223612 (IDO-PROTAC) induced IDO1 degradation [1] | Effect on enzyme-dependent and enzyme-independent functions of IDO1 [4]
 |  |  | CC(C)C[C@@H](C=O)NC(=O)[C@H](CC(C)C)NC(=O)[C@H](CC(C)C)NC(=O)OCc1ccccc1 [MG132] (Cbz-Leu-Leu-Leu-aldehyde) | blocks NU223612 induced IDO1 degradation; also recorded: blocks IDO-PROTAC-induced IDO1 degradation | 
 |  |  | NS(=O)(=O)OC[C@@H]1C[C@@H](n2ccc3c(N[C@H]4CCc5ccccc54)ncnc32)C[C@@H]1O [MLN4924] | blocks IDO-PROTAC-induced IDO1 degradation | 
induced IDO1 degradation | induced IDO1 degradation |  | C[C@@H](C(=O)Nc1ccc(OC2CCN(C(=O)CCOCCOCCNc3cccc4c3C(=O)N(C3CCC(=O)NC3=O)C4=O)CC2)cc1)[C@H]1CC[C@@H](c2ccnc3ccc(F)cc32)CC1 (stereo partly shown) [NU223612] |  | inhibits both enzyme-dependent and enzyme-independent functions of IDO1
 |  | blocks NU223612 induced IDO1 degradation | Nc1cccc2c1C(=O)N(C1CCC(=O)NC1=O)C2=O (stereo not shown) [Pomalidomide] | blocks IDO-PROTAC-induced IDO1 degradation | 
